Consider one compound from PMC6706711 (Iranian Journal of Pharmaceutical Research : IJPR, 2019).

A short description of data set [1]: Individual pharmacokinetic parameters by renal function subgroup, post hoc empirical Bayesian approach. Conditions: Total, N=155, mean ± SD.
Description: After fixing the PK parameters and variation in the final model, the PK parameters for individuals in three groups of different renal function were obtained by using post hoc empirical Bayesian approach. The mean values and standard deviation of the parameters in different groups were calculated.
For data set [2] the following is noted: 1,000 bootstrap-resampled data sets.
The conditions of data set [3]: cited from earlier work. The text has this: In this study, the data of 155 children (aged from 1 month to 16 years) infected with MRS were used to establish a PPK model suitable for Chinese children. And then the PK parameters were obtained by Bayesian method. […] But the value of CL is faster than that reported by Marques-Minana et al.([23]) (0.066 L· ...
Data set [4] deals with MRSA. Further details: method as in 2 sources, one per row (each row's own in cited_ref): ref Giachetto et al. ([32]) ||| ref Frymoyer et al. ([33]). The note with it: vancomycin 39.92mg·kg-1·d-1; MRSA strains with MIC 1 mg·L-1; ref Giachetto et al. ([32]); cited from earlier work.
The mark [5] stands for this setting: Japanese pediatric patients, ref Yasuhara et al.([17]).
Where [6] appears, read: pediatric patients, ref Wrishko et al.(16).

Structures are written as SMILES. Where two headings read alike, the source gives them in different places.

In data set [1], `CN[C@H](CC(C)C)C(=O)N[C@H]1C(=O)N[C@@H](CC(N)=O)C(=O)N[C@H]2C(=O)N[C@H]3C(=O)N[C@H](C(=O)N[C@H](C(=O)O)c4cc(O)cc(O)c4-c4cc3ccc4O)[C@H](O)c3ccc(c(Cl)c3)Oc3cc2cc(c3O[C@@H]2O[C@H](CO)[C@@H](O)[C@H](O)[C@H]2O[C@H]2C[C@](C)(N)[C@H](O)[C@H](C)O2)Oc2ccc(cc2Cl)[C@H]1O` [vancomycin, Vancomycin] showed a CL of 2.22 ± 1.1 mL/min/kg, a Vd of 0.65 ± 0.30 L/kg and a ke of 0.218 ± 0.091 h⁻¹. In data set [2], the “Exponent for Weight as covariate for CL, bootstrap median” value stood at 0.852; the “Exponent for Weight as covariate for Vd, bootstrap median” value was determined as 1.018; the “Exponent for lnGFR as covariate for CL, bootstrap median” value worked out at 2.378; the “θVd (typical value for Weight=9 kg), bootstrap median” value was 5.39 L. Also, in data set [3] (setting [5]), the CL is 1.98 mL/min/kg and the Vd was 0.522 L/kg. The CL in data set [3] (neonates, ref Marques-Minana et al.([23])) is 1.1 mL/min/kg. In data set [3] (setting [6]), the CL is 2 mL/min/kg and the Vd was 0.57 L/kg. Also, in data set [4], the “probability of AUC0-24h/MIC ≥ 400” value is given as 50%.
